Data taken from publication PMC10187093, “Synthesis, in silico modelling, and in vitro biological evaluation of substituted pyrazole derivatives as potential anti-skin cancer, anti-tyrosinase, and antioxidant agents” (Journal of Enzyme Inhibition and Medicinal Chemistry, 2023).
Read-outs that look alike come from different tables or passages of the source.

Experiments:
[1] = test system: GFP-A431; test: MTT antiproliferative/cytotoxicity assay, A431; format: cell-based, human; settings: for IC50: Homo sapiens, A-431, 48 h, read-out: IC50 GFP-A431; for selectivity index (SI) A431: IC50 HaCaT divided by IC50 A431
Description: (§1) Human-derived GFP-expressing melanoma A375 and epidermoid carcinoma A431 cell lines were purchased from Angio-Proteomie (Boston, MA). Human melanoma carcinoma SK-MEL-28 and human immortalised keratinocytes (HaCaT) cell lines were acquired from American Type Culture Collection (ATCC; Manassas, VA). […] The growth media of incubated cells were changed every 2–3 days until they attained 70–80% confluence, after which they were sub-cultured for experiments and re-passaging. DMSO was used as the vehicle to prepare a 10 mM stock solution of the test compounds.
(§2) Stock solutions (10 mM) were prepared by dissolving each compound to be screened in DMSO.

[2] = test system: A375; test: MTT antiproliferative/cytotoxicity assay, A375; format: cell-based, human; settings: Homo sapiens, A-375, 48 h, read-out: IC50 A375
Description: (§3) Human-derived GFP-expressing melanoma A375 and epidermoid carcinoma A431 cell lines were purchased from Angio-Proteomie (Boston, MA). Human melanoma carcinoma SK-MEL-28 and human immortalised keratinocytes (HaCaT) cell lines were acquired from American Type Culture Collection (ATCC; Manassas, VA). Human cutaneous SCC cell line SCC-12[192] was generously provided by Dr. James G. Rheinwald to Dr. Tatiana Efimova. Except SK-MEL-28, which was cultured in an RPMI-1640 medium supplemented with 5% FBS, all other human immortalised cell lines were grown and maintained in DMEM containing varying percentages of FBS; 5% FBS for A431, SCC-12, and HaCaT lines, and 10% FBS for A375. All culture media were routinely supplemented with 1% PEST 100X (100 U/mL penicillin, 100 μg/mL streptomycin), and cells were cultured in incubators maintained at 37 °C under an atmosphere of 95% humidity, 20% O2, and 5% CO2. The growth media of incubated cells were changed every 2–3 days until they attained 70–80% confluence, after which they were sub-cultured for experiments and re-passaging. DMSO was used as the vehicle to prepare a 10 mM stock solution of the test compounds.
(§4) Stock solutions (10 mM) were prepared by dissolving each compound to be screened in DMSO. From these stock solutions, escalating concentrations were prepared using the corresponding cell growth media as a diluent, and the cells (65–75% confluent) were treated with (0–40 µM) or without the drug in sext- to octuplicate and incubated for 48 h. All treatment protocols and controls were prepared as previously described.
(§5) The potency and cytotoxicity of the test compounds against two cutaneous melanoma (A375 and SK-MEL-28) and two non-melanoma (A431 and SCC-12) SC cell lines in addition to a control immortalised normal human epidermal keratinocytes (HaCaT) cell line were assessed by MTT assay as previously described.

[3] = DPPH free radical scavenging assay; settings: for Percent Scavenging (DPPH): 1 mM; for IC50: N.A. = No Activity, > 1000 = not biologically relevant, read-out: IC50 Value, DPPH antioxidant activity (Table S4)
Description: An initial screen was done of all 25 derivatives at a concentration of 1 mM. […] Methanol was used as the diluent, and 100 µL of DPPH (200 µM; Sigma-Aldrich, St. Louis, MO) was added to each well. […] The scavenging capacity (SC) was calculated as SC% = ((ΔAcontrol – ΔAsample)/ΔAcontrol) × 100%, where ΔAcontrol was the absorbance of the reagent blank, and ΔAsample was the absorbance of the test samples. The control contained all reagents except the compounds, and all tests were performed in triplicate. Quercetin served as a positive control. The DPPH methanolic solution (1 mL) mixed with DMSO (5 µL) served as a negative control.

[4] = test system: SK-MEL-28; test: MTT antiproliferative/cytotoxicity assay, SK-MEL-28; format: cell-based, human; settings: Homo sapiens, SK-MEL-28, 48 h, read-out: IC50 SKMEL-28
Description: as §3, §4, §5

[5] = test system: HaCaT; test: MTT cytotoxicity assay, noncancerous HaCaT keratinocytes; format: cell-based, human; settings: Homo sapiens, HaCaT, 48 h, read-out: IC50 HaCaT
Description: as §3, §4, §5

[6] = molecular target: T1, mushroom tyrosinase (Agaricus bisporus, UniProt C7FF04); test: In vitro mushroom tyrosinase inhibition assay; format: biochemical; settings: for inhibition at 500 µM: read-out: % Inhibition of tyrosinase
T1 construct: purchased Sigma-Aldrich Chemical Company (St. Louis, MO) and MP Biomedicals (Irvine, CA)
T1 sequence (C7FF04 1-392 limits assumed): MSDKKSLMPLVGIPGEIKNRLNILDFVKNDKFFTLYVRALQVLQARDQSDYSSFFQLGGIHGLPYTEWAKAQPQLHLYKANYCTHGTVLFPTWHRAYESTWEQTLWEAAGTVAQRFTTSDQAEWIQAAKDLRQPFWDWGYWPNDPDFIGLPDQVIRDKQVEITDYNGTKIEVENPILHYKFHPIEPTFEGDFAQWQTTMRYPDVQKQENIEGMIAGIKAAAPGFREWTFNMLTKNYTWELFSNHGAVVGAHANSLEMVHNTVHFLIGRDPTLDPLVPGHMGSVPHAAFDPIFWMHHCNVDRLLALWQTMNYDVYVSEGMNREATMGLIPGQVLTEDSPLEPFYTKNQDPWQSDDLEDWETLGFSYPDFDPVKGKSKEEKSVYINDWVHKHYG
Description: The anti-tyrosinase potential of all the synthesised derivatives was determined by an enzymatic tyrosinase inhibition assay based on their ability to inhibit the substrate, L-tyrosine, from binding to the tyrosinase enzyme. […] Test samples were dissolved in DMSO at a concentration of 10 mM and then diluted to different concentrations with phosphate buffer (0.1 M, pH 6.8). Each well contained 40 µL of the sample with 80 µL of phosphate buffer solution (0.1 M, pH 6.8), 40 µL of tyrosinase enzyme (100 units/mL), and 40 µL L-tyrosine (2.5 mM). The mixture was incubated for 30 min at room temperature, and absorbance was measured at 490 nm. Each sample was accompanied by a sample blank containing all components except tyrosinase. […] The percentage of tyrosinase inhibition was calculated as follows: ((ΔAcontrol – ΔAsample)/ΔAcontrol) × 100. IC50 values denoted the sample concentration required to inhibit 50% tyrosinase activity (Table S1).

[7] = test system: SCC-12; test: MTT antiproliferative/cytotoxicity assay, SCC-12; format: cell-based, human; settings: for IC50: Homo sapiens, SCC12, 48 h, read-out: IC50 SCC-12; for selectivity index (SI) SCC-12: IC50 HaCaT divided by IC50 SCC-12
Description: as §1, §2

[8] = control noncancerous keratinocytes, MTT
[9] = 500 µM, single-concentration screen
[10] = > 500 = not biologically relevant, read-out: IC50 Value, mushroom tyrosinase inhibition (Table S1)

Structure (SMILES)	IC50 ([1]; non-melanoma, MTT, 48 h) [µM]	selectivity index (SI) A431 [1]	IC50 ([2]; melanoma, MTT, 48 h) [µM]	Percent Scavenging (DPPH) [3] [%]	IC50 [3] [µM]	IC50 ([4]; melanoma, MTT, 48 h) [µM]	IC50 [5, 8] [µM]	inhibition at 500 µM [6, 9] [%]	IC50 [6, 10] [µM]	IC50 ([7]; non-melanoma, MTT, 48 h) [µM]	selectivity index (SI) SCC-12 [7]	IC50 [1] [µM]	IC50 [2] [µM]	IC50 [4] [µM]	IC50 [5] [µM]	IC50 ([6]; IC50 Value, mushroom tyrosinase inhibition (Table S1), > 500 = not biologically relevant) [µM]	inhibition at 500 µM [6] [%]	IC50 [7] [µM]	DPPH antioxidant activity (in words) [3]	IC50 ([6]; L-tyrosine substrate, read-out: IC50 tyrosinase inhibition) [µM]
Cc1c2c(nn1-c1ccccc1)-c1ccccc1CC2 [P9, 3-Methyl-2-phenyl-4,5-dihydro-2H-benzo[g]indazole]	28 ± 3.6	1.6	45.2 ± 2	5.48	> 1000	40.8 ± 1	43.6 ± 1.4	9.49	> 500	28.8 ± 1.4	1.5	–	–	–	–	–	–	–	–	–
CCOC(=O)c1c(C)nn(-c2ccccc2)c1C [P10, Ethyl 3,5-dimethyl-1-phenyl-1H-pyrazole-4-carboxylate]	–	–	–	-11.90	–	–	–	–	–	–	–	196 ± 3.8	55.3 ± 2.5	43.7 ± 2.7	68 ± 1.2	> 500	31	49.1 ± 2	–	–
Cc1cc(-c2ccccc2)no1 [P11, 5-Methyl-3-phenylisoxazole]	43.7 ± 2.7	2.6	57.8 ± 6.5	-27.39	–	34.5 ± 1.2	116 ± 10.1	88 ± 0.3	173	44.6 ± 1.3	2.6	–	–	–	–	–	–	–	–	–
Cc1onc2c1CCc1ccccc1-2 [P12, 3-Methyl-4,5-dihydronaphtho[1,2-c]isoxazole]	55.5 ± 3.5	–	73.5 ± 3.8	-1.13	–	24 ± 2	32.6 ± 2.4	69.7 ± 5	336	32.6 ± 2.1	–	–	–	–	–	–	–	–	–	–
c1ccc(-c2cc(-c3ccccc3)n(-c3ccccc3)n2)cc1 [P13, 1,3,5-Triphenyl-1H-pyrazole]	181 ± 4.7	–	93.4 ± 6.4	19.44	> 1000	154 ± 2.9	91.6 ± 4.1	7.66	> 500	52.8 ± 2.2	–	–	–	–	–	–	–	–	–	–
Cc1cc(-c2ccccc2)n(-c2ccccc2)n1 [P14, 3-Methyl-1,5-diphenyl-1H-pyrazole]	17.8 ± 0.5	2.0	25.8 ± 2.7	-23.93	–	33.3 ± 1.7	35.1 ± 2.8	97.4 ± 0.2	–	42.5 ± 2.8	0.8	–	–	–	–	–	–	–	inactive	15.9
FC(F)(F)c1cc(-c2ccccc2)n(-c2ccccc2)n1 [P15, 1,5-Diphenyl-3-(trifluoromethyl)-1H-pyrazole]	42.9 ± 1	–	58.5 ± 3.4	-23.36	–	36 ± 3.9	53.7 ± 3.1	32.2	> 500	98 ± 5.5	–	–	–	–	–	–	–	–	–	–
Cc1cc(-c2ccccc2)n(-c2ccc(Br)cc2)n1 [P16, 1-(4-Bromophenyl)-3-methyl-5-phenyl-1H-pyrazole]	21 ± 1.3	2.6	46 ± 1	-24.61	–	39.1 ± 2.3	54.2 ± 3.6	17.3	> 500	19.6 ± 2	2.8	–	–	–	–	–	–	–	–	–
Cc1cc(-c2ccccc2)n(-c2ccc(Cl)cc2)n1 [P17, 1-(4-Chlorophenyl)-3-methyl-5-phenyl-1H-pyrazole]	19.7 ± 0.8	3.7	44.5 ± 3	-23.30	–	34.2 ± 3.9	72.4 ± 6	95.6 ± 1.1	165	23.4 ± 1.7	3.1	–	–	–	–	–	–	–	–	–
COc1ccc(-n2nc(C)cc2-c2ccccc2)cc1 [P18, 1-(4-Methoxyphenyl)-3-methyl-5-phenyl-1H-pyrazole]	25.9 ± 0.9	2.0	48 ± 2.1	-24.28	–	19.3 ± 2.4	49.6 ± 1.5	92.2 ± 3.7	156	21.9 ± 0.2	2.3	–	–	–	–	–	–	–	–	–
CC1=NN(c2ccccc2)C(=O)C1(C)O (centres unmarked) [P20]	120 ± 2.6	–	110 ± 15.4	-20.03	–	50 ± 4.3	47.7 ± 2.7	39.7	> 500	57.3 ± 0.2	–	–	–	–	–	–	–	–	no appreciable antioxidant activity	–
